Source: patent publication US12209102B2, “Heterocyclic compounds and uses thereof” (Kumquat Biosciences Inc., priority 2022, dated 2025)
pIC50: −log10 of the molar value.

Columns and labels:
K-Ras G12D = molecular target: T1, K-Ras G12D (Homo sapiens, UniProt P01116, G12D); assay: HTRF resonance energy transfer assay, K-Ras G12D / SOS1 interaction; type: biochemical; details: HTRF assay of Example 5; read-out: IC50 against K-Ras G12D
T1 construct: made in house; host or cells: E. coli BL21 (DE3)
T1 sequence (P01116 1-188 isoform P01116-2 G12D): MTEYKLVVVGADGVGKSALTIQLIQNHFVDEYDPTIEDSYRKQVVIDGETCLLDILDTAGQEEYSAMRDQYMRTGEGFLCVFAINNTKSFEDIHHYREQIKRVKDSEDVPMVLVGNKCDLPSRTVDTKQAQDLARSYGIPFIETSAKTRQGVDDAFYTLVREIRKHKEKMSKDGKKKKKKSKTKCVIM
Summary of the method: (§1)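 GST-tagged K-Ras (WT or mutant) bound to anti-GST-Eu donor was mixed with His-hSOS1 bound to anti-6His-XL665 acceptor in ~5 mM HEPES pH 7.4, 150 mM NaCl, 1 mM DTT, 0.05% BSA, 0.0025% Igepal. HTRF (ex 337, em 620/665 nm) was read after ~10 min or longer. IC50 came from the 665/620 ratio over duplicates from 10 μM to 0.01 μM.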

A549 cells = assay: Ras cellular assay, growth of cells with K-Ras G12S mutation (CellTiter-Glo); type: cell-based; details: Homo sapiens, cell growth, Example 9, G12S mutation, read-out: IC50 against A549 cells
Summary of the method: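 A549 cells (K-Ras G12S) in RPMI-1640 with 10% heat-inactivated FBS, seeded e.g. 800 per well in standard or ultra-low-attachment 384-well plates, treated next day with a dilution series (e.g. 10-point, 3-fold). Viability by CellTiter-Glo luminescence about 6 days later; IC50 from four-parameter fit.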

K-Ras G12V = molecular target: T2, K-Ras G12V (Homo sapiens, UniProt P01116, G12V); assay: HTRF resonance energy transfer assay, K-Ras G12V / SOS1 interaction; type: biochemical; details: HTRF assay of Example 5; read-out: IC50 against K-Ras G12V
T2 construct: made in house; host or cells: E. coli BL21 (DE3)
T2 sequence (P01116 1-188 isoform P01116-2 G12V): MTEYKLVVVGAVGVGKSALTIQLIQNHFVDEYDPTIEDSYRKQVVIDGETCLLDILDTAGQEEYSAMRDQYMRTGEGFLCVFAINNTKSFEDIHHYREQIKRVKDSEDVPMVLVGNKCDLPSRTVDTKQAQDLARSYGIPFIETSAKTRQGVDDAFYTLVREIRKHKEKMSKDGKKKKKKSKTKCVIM
Summary of the method: as §1

SW620 cells = assay: Ras cellular assay, growth of cells with K-Ras G12V mutation (CellTiter-Glo); type: cell-based; details: Homo sapiens, SW-620; cell growth, Example 9, G12V mutation; read-out: IC50 against SW620 cells
Summary of the method: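 SW620 (K-Ras G12V) cells, e.g. 800/well in RPMI-1640 with 10% heat-inactivated FBS on standard or ultra-low attachment plates, were dosed the day after plating with e.g. a 10-point 3-fold series. Viability by CellTiter-Glo luminescence about 6 days later; IC50 from four-parameter fit.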

K-Ras WT = molecular target: T3, K-Ras WT (Homo sapiens, UniProt P01116); assay: HTRF resonance energy transfer assay, K-Ras WT / SOS1 interaction; type: biochemical; details: HTRF assay of Example 5; read-out: IC50 against K-Ras WT
T3 construct: made in house; host or cells: E. coli BL21 (DE3)
T3 sequence (P01116 1-188 isoform P01116-2): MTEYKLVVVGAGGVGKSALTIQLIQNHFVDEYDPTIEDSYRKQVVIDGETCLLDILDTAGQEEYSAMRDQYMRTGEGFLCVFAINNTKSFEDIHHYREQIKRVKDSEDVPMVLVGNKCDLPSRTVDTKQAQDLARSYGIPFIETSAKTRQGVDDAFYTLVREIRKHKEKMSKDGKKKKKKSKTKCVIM
Summary of the method: as §1

K-Ras G12S = molecular target: T4, K-Ras G12S (Homo sapiens, UniProt P01116, G12S); assay: HTRF resonance energy transfer assay, K-Ras G12S / SOS1 interaction; type: biochemical; details: HTRF assay of Example 5; read-out: IC50 against K-Ras G12S
T4 construct: made in house; host or cells: E. coli BL21 (DE3)
T4 sequence (P01116 1-188 isoform P01116-2 G12S): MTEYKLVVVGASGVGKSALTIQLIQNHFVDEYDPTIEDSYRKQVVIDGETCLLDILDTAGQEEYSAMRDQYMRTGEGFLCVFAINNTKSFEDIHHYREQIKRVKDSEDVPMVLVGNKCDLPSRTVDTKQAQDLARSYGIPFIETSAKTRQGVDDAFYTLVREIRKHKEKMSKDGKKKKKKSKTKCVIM
Summary of the method: as §1

GP2D cells = assay: Ras cellular assay, growth of cells with K-Ras G12D mutation (CellTiter-Glo); type: cell-based; details: cell growth, Example 9, G12D mutation, read-out: IC50 against GP2D cells

## C[C@H](O)[C@H]1COc2c(Cl)c(-c3ccc(F)c4sc(N)c(C#N)c34)c(F)c3nc(OC[C@@]45CCCN4C[C@H](F)C5)nc(c23)N1CCC(F)F [Compound 954, 2-amino-4-((5R)-8-chloro-4-(3,3-difluoropropyl)-10-fluoro-2-(((2R,7aS)-2-fluorotetrahydro-1H-pyrrolizin-7a(5H)-yl)methoxy)-5-((S)-1-hydroxyethyl)-5,6-dihydro-4H-[1,4]oxazepino[5,6,7-de]quinazolin-9-yl)-7-fluorobenzo[b]thiophene-3-carbonitrile]
K-Ras G12D
  pIC50: > 7.00
A549 cells
  pIC50: > 5.30
K-Ras G12V
  pIC50: > 7.00
SW620 cells
  pIC50: > 5.30
K-Ras WT
  pIC50: > 7.00
K-Ras G12S
  pIC50: > 7.00
GP2D cells
  pIC50: > 6.30

## N#Cc1c(N)sc2c(F)ccc(-c3c(Cl)c4c5c(nc(OC[C@@]67CCCN6C[C@H](F)C7)nc5c3F)N(C3CC35CN(C=O)C5)CCO4)c12 (stereo partly drawn) [Compound 957, 2-amino-4-(8-chloro-10-fluoro-2-(((2R,7aS)-2-fluorotetrahydro-1H-pyrrolizin-7a(5H)-yl)methoxy)-4-(5-formyl-5-azaspiro[2.3]hexan-1-yl)-5,6-dihydro-4H-[1,4]oxazepino[5,6,7-de]quinazolin-9-yl)-7-fluorobenzo[b]thiophene-3-carbonitrile]
K-Ras G12D
  pIC50: > 7.00
A549 cells
  pIC50: > 5.30
K-Ras G12V
  pIC50: > 7.00
SW620 cells
  pIC50: > 5.30
K-Ras WT
  pIC50: > 7.00
K-Ras G12S
  pIC50: > 7.00
GP2D cells
  pIC50: > 6.30

## N#Cc1c(N)sc2c(F)ccc(-c3c(Cl)c4c5c(nc(OC[C@@]67CCCN6C[C@H](F)C7)nc5c3F)N(C3CCN(C(=O)[C@@H]5CCOC5)C3)CCO4)c12 (stereo partly drawn) [Compound 960, 2-amino-4-(8-chloro-10-fluoro-2-(((2R,7aS)-2-fluorotetrahydro-1H-pyrrolizin-7a(5H)-yl)methoxy)-4-(1-((R)-tetrahydrofuran-3-carbonyl)pyrrolidin-3-yl)-5,6-dihydro-4H-[1,4]oxazepino[5,6,7-de]quinazolin-9-yl)-7-fluorobenzo[b]thiophene-3-carbonitrile]
K-Ras G12D
  pIC50: > 7.00
A549 cells
  pIC50: > 5.30
K-Ras G12V
  pIC50: > 7.00
SW620 cells
  pIC50: > 5.30
K-Ras WT
  pIC50: > 7.00
K-Ras G12S
  pIC50: > 7.00
GP2D cells
  pIC50: > 6.30

## CS(=O)(=O)N1CCC(N2CCOc3c(Cl)c(-c4ccc(F)c5sc(N)c(C#N)c45)c(F)c4nc(OC[C@@]56CCCN5C[C@H](F)C6)nc2c34)C1 (stereo partly drawn) [Compound 966, 2-amino-4-(8-chloro-10-fluoro-2-(((2R,7aS)-2-fluorotetrahydro-1H-pyrrolizin-7a(5H)-yl)methoxy)-4-(1-(methylsulfonyl)pyrrolidin-3-yl)-5,6-dihydro-4H-[1,4]oxazepino[5,6,7-de]quinazolin-9-yl)-7-fluorobenzo[b]thiophene-3-carbonitrile]
K-Ras G12D
  pIC50: > 7.00
A549 cells
  pIC50: > 5.30
K-Ras G12V
  pIC50: > 7.00
SW620 cells
  pIC50: > 5.30
K-Ras WT
  pIC50: > 7.00
K-Ras G12S
  pIC50: > 7.00
GP2D cells
  pIC50: > 6.30

## N#Cc1c(N)sc2c(F)ccc(-c3c(Cl)c4c5c(nc(OC[C@@]67CCCN6C[C@H](F)C7)nc5c3F)N(C3CCNC3)CCO4)c12 (stereo partly drawn) [Compound 969, 2-amino-4-(8-chloro-10-fluoro-2-(((2R,7aS)-2-fluorotetrahydro-1H-pyrrolizin-7a(5H)-yl)methoxy)-4-(pyrrolidin-3-yl)-5,6-dihydro-4H-[1,4]oxazepino[5,6,7-de]quinazolin-9-yl)-7-fluorobenzo[b]thiophene-3-carbonitrile]
K-Ras G12D
  pIC50: > 7.00
A549 cells
  pIC50: > 5.30
K-Ras G12V
  pIC50: > 7.00
SW620 cells
  pIC50: > 5.30
K-Ras WT
  pIC50: > 7.00
K-Ras G12S
  pIC50: > 7.00
GP2D cells
  pIC50: > 6.30

## N#Cc1c(N)sc2c(F)ccc(-c3c(Cl)c4c5c(nc(OC[C@@]67CCCN6C[C@H](F)C7)nc5c3F)N(C35COC(CF)(C3)C5)CCO4)c12 [Compound 972, 2-amino-4-(8-chloro-10-fluoro-4-(1-(fluoromethyl)-2-oxabicyclo[2.1.1]hexan-4-yl)-2-(((2R,7aS)-2-fluorotetrahydro-1H-pyrrolizin-7a(5H)-yl)methoxy)-5,6-dihydro-4H-[1,4]oxazepino[5,6,7-de]quinazolin-9-yl)-7-fluorobenzo[b]thiophene-3-carbonitrile]
K-Ras G12D
  pIC50: > 7.00
A549 cells
  pIC50: > 5.30
K-Ras G12V
  pIC50: > 7.00
SW620 cells
  pIC50: > 5.30
K-Ras WT
  pIC50: > 7.00
K-Ras G12S
  pIC50: > 7.00
GP2D cells
  pIC50: > 6.30

## N#Cc1c(N)sc2c(F)ccc(-c3c(Cl)c4c5c(nc(OC[C@@]67CCCN6C[C@H](F)C7)nc5c3F)N(C3CCN(C(=O)[C@@H]5CCCO5)C3)CCO4)c12 (stereo partly drawn) [Compound 984, 2-amino-4-(8-chloro-10-fluoro-2-(((2R,7aS)-2-fluorotetrahydro-1H-pyrrolizin-7a(5H)-yl)methoxy)-4-(1-((S)-tetrahydrofuran-2-carbonyl)pyrrolidin-3-yl)-5,6-dihydro-4H-[1,4]oxazepino[5,6,7-de]quinazolin-9-yl)-7-fluorobenzo[b]thiophene-3-carbonitrile]
K-Ras G12D
  pIC50: > 7.00
A549 cells
  pIC50: > 5.30
K-Ras G12V
  pIC50: > 7.00
SW620 cells
  pIC50: > 5.30
K-Ras WT
  pIC50: > 7.00
K-Ras G12S
  pIC50: > 7.00
GP2D cells
  pIC50: > 6.30

## CN(C)CCN1CCOc2c(Cl)c(-c3ccc(F)c4sc(N)c(C#N)c34)c(F)c3nc(OC[C@@]45CCCN4C[C@H](F)C5)nc1c23 [Compound 994, 2-amino-4-(8-chloro-4-(2-(dimethylamino)ethyl)-10-fluoro-2-(((2R,7aS)-2-fluorotetrahydro-1H-pyrrolizin-7a(5H)-yl)methoxy)-5,6-dihydro-4H-[1,4]oxazepino[5,6,7-de]quinazolin-9-yl)-7-fluorobenzo[b]thiophene-3-carbonitrile]
K-Ras G12D
  pIC50: > 7.00
A549 cells
  pIC50: > 5.30
K-Ras G12V
  pIC50: > 7.00
SW620 cells
  pIC50: > 5.30
K-Ras WT
  pIC50: > 7.00
K-Ras G12S
  pIC50: > 7.00
GP2D cells
  pIC50: > 6.30

## N#Cc1c(N)sc2c(F)ccc(-c3c(Cl)c4c5c(nc(OC[C@@]67CCCN6C[C@H](F)C7)nc5c3F)N(C3CCCN(C(=O)C(F)F)C3)CCO4)c12 (stereo partly drawn) [Compound 998, 2-amino-4-(8-chloro-4-(1-(2,2-difluoroacetyl)piperidin-3-yl)-10-fluoro-2-(((2R,7aS)-2-fluorotetrahydro-1H-pyrrolizin-7a(5H)-yl)methoxy)-5,6-dihydro-4H-[1,4]oxazepino[5,6,7-de]quinazolin-9-yl)-7-fluorobenzo[b]thiophene-3-carbonitrile]
K-Ras G12D
  pIC50: > 7.00
A549 cells
  pIC50: > 5.30
K-Ras G12V
  pIC50: > 7.00
SW620 cells
  pIC50: > 5.30
K-Ras WT
  pIC50: > 7.00
K-Ras G12S
  pIC50: > 7.00
GP2D cells
  pIC50: > 6.30

## CC(C(F)F)N1CCOc2c(Cl)c(-c3ccc(F)c4sc(N)c(C#N)c34)c(F)c3nc(OC[C@@]45CCCN4C[C@H](F)C5)nc1c23 (stereo partly drawn) [Compound 1000, 2-amino-4-(8-chloro-4-(1,1-difluoropropan-2-yl)-10-fluoro-2-(((2R,7aS)-2-fluorotetrahydro-1H-pyrrolizin-7a(5H)-yl)methoxy)-5,6-dihydro-4H-[1,4]oxazepino[5,6,7-de]quinazolin-9-yl)-7-fluorobenzo[b]thiophene-3-carbonitrile]
K-Ras G12D
  pIC50: > 7.00
A549 cells
  pIC50: > 5.30
K-Ras G12V
  pIC50: > 7.00
SW620 cells
  pIC50: > 5.30
K-Ras WT
  pIC50: > 7.00
K-Ras G12S
  pIC50: > 7.00
GP2D cells
  pIC50: > 6.30

## N#Cc1c(N)sc2c(F)ccc(-c3c(Cl)c4c5c(nc(OC[C@@]67CCCN6C[C@H](F)C7)nc5c3F)N(CC(F)F)CC(CO)O4)c12 (stereo partly drawn) [Compound 1002, 2-amino-4-(8-chloro-4-(2,2-difluoroethyl)-10-fluoro-2-(((2R,7aS)-2-fluorotetrahydro-1H-pyrrolizin-7a(5H)-yl)methoxy)-6-(hydroxymethyl)-5,6-dihydro-4H-[1,4]oxazepino[5,6,7-de]quinazolin-9-yl)-7-fluorobenzo[b]thiophene-3-carbonitrile]
K-Ras G12D
  pIC50: > 7.00
A549 cells
  pIC50: > 5.30
K-Ras G12V
  pIC50: > 7.00
SW620 cells
  pIC50: > 5.30
K-Ras WT
  pIC50: > 7.00
K-Ras G12S
  pIC50: > 7.00
GP2D cells
  pIC50: > 6.30

## CN(C)CCCN1CCOc2c(Cl)c(-c3ccc(F)c4sc(N)c(C#N)c34)c(F)c3nc(OC[C@@]45CCCN4C[C@H](F)C5)nc1c23 [Compound 1020, 2-amino-4-(8-chloro-4-(3-(dimethylamino)propyl)-10-fluoro-2-(((2R,7aS)-2-fluorotetrahydro-1H-pyrrolizin-7a(5H)-yl)methoxy)-5,6-dihydro-4H-[1,4]oxazepino[5,6,7-de]quinazolin-9-yl)-7-fluorobenzo[b]thiophene-3-carbonitrile]
K-Ras G12D
  pIC50: > 7.00
A549 cells
  pIC50: > 5.30
K-Ras G12V
  pIC50: > 7.00
SW620 cells
  pIC50: > 5.30
K-Ras WT
  pIC50: > 7.00
K-Ras G12S
  pIC50: > 7.00
GP2D cells
  pIC50: > 6.30
